The test system of data set [1] is Hepatotoxicity.
Data set [2] deals with Hepatotoxicity. The source holds these as a separate data set.
Data set [3] has as its system Hepatotoxicity. This is another data set of the same source.
In data set [4] the test system is Hepatotoxicity. This is another data set of the same source.
The subject of data set [5] is Hepatotoxicity. This is another data set of the same source.
In data set [6] the test system is Hepatotoxicity. The source holds these as a separate data set.
Data set [7] relates to Hepatotoxicity. The source holds these as a separate data set.
In data set [8] the test system is Hepatotoxicity. This is another data set of the same source.
Data set [9] has as its system Hepatotoxicity. This is another data set of the same source.
Data set [10] concerns Hepatotoxicity. The source holds these as a separate data set.
In data set [11] the test system is Hepatotoxicity. This is another data set of the same source.
Data set [12] relates to Hepatotoxicity. The source holds these as a separate data set.
Data set [13] concerns Hepatotoxicity. The source holds these as a separate data set.
Data set [14] has as its system Hepatotoxicity. The source holds these as a separate data set.

These results are taken from ChEMBL document CHEMBL1909294, “Translating clinical findings into knowledge in drug safety evaluation--drug induced liver injury prediction system (DILIps)” (PLoS Comput Biol, 2011).

*1 amine or outer side, *2 acyl side, *3 side chain or, on linkers, in order; H or OH if unused. Where a SMILES comes first, the peptide text is derived from it. Bridges are numbered along the chain shown (N, C = ends). [ ]: non-standard residue; d: D form. The star is where a group is joined. hTyr(3S-OH,4S-OH,3'-OSO3H) = N[C@H](C(=O)O)[C@H](O)[C@@H](O)c1ccc(O)c(OS(=O)(=O)O)c1; Orn(4R-OH,5R-OH) = O=C([C@H](C[C@@H](O)[C@@H](O)N[*:3])N[*:1])[*:2]; Pro(3S-OH,4S-Me) = C[C@H]1CN[C@H](C(=O)O)[C@H]1O; X1 = CCCCCOc1ccc(-c2cc(-c3ccc(C(=O)*)cc3)no2)cc1; Gln(3R-OH) = NC(=O)C[C@@H](O)[C@H](N)C(=O)O; Hyp = O=C(O)[C@@H]1C[C@@H](O)CN1
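Throughout, for HepSE Combined Scores: combined hepatic side effect score as listed in the training data of the Drug Induced Liver Injury Prediction System (DILIps).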
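Throughout, for HepSE bilirubinemia: bilirubinemia hepatic side effect score drawn from the DILIps training data, a prediction system for drug-induced liver injury; call rule not given here.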
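Throughout, for HepSE cholecystitis: Cholecystitis-related hepatic side effect score drawn from the DILIps (drug-induced liver injury prediction) training data set; call rule not given here.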
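Throughout, for HepSE cholelithiasis: hepatic side effect score for cholelithiasis, drawn from the DILIps training data for predicting drug-induced liver injury; call rule not given here.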
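Throughout, for HepSE cirrhosis: cirrhosis hepatic side effect score taken from the DILIps (drug-induced liver injury prediction) training set; call rule not given here.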
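Throughout, for HepSE elevated liver function tests: hepatic side effect score for raised liver function tests, as recorded in the DILIps training set used for predicting drug-induced liver injury.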
Throughout, for HepSE hepatic failure: call rule not given here.
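Throughout, for HepSE hepatic necrosis: score of hepatic side effects for hepatic necrosis, drawn from the training data of DILIps, a prediction system for drug-induced liver injury; call rule not given here.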
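Throughout, for HepSE hepatitis: Hepatitis-related hepatic side effect score taken from the training data of DILIps, a prediction system for drug-induced liver injury; call rule not given here.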
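Throughout, for HepSE hepatomegaly: hepatic side effect score for hepatomegaly, taken from the training set of the DILIps drug-induced liver injury prediction system; call rule not given here.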
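Throughout, for HepSE jaundice: Jaundice-related hepatic side-effect score drawn from the training data of the DILIps (drug-induced liver injury prediction system); call rule not given here.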
Throughout, for HepSE liver disease: call rule not given here.
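Throughout, for HepSE liver fatty: hepatic side effect score for fatty liver, taken from the DILIps training set for predicting drug-induced liver injury; call rule not given here.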
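Throughout, for HepSE liver function tests abnormal: hepatic side effect score taken from the DILIps (drug-induced liver injury prediction system) training data, here covering abnormal liver function test findings.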

As for `CCCCCOc1ccc(-c2cc(-c3ccc(C(=O)N[C@H]4C[C@@H](O)[C@@H](O)NC(=O)[C@@H]5[C@@H](O)[C@@H](C)CN5C(=O)[C@H]([C@H](O)CC(N)=O)NC(=O)[C@H]([C@H](O)[C@@H](O)c5ccc(O)c(OS(=O)(=O)O)c5)NC(=O)[C@@H]5C[C@@H](O)CN5C(=O)[C@H]([C@@H](C)O)NC4=O)cc3)no2)cc1` [MICAFUNGIN] (X1-[Orn(4R-OH,5R-OH)]T[Hyp][hTyr(3S-OH,4S-OH,3'-OSO3H)][Gln(3R-OH)][Pro(3S-OH,4S-Me)]; lactam 1-C), the HepSE_cholecystitis in the data set with Hepatotoxicity [1] was 0. Further, the HepSE_jaundice with Hepatotoxicity [2] came to 1. The HepSE_cholelithiasis in the data set on Hepatotoxicity [3] was found to be 0. In addition, the “HepSE_Combined Scores” value in the data set on Hepatotoxicity [4] is 6. The molecule further came in with a HepSE_hepatic failure with Hepatotoxicity [5] of 1. In addition, the HepSE_bilirubinemia with Hepatotoxicity [6] is reported as 1. The molecule also displayed a HepSE_hepatomegaly with Hepatotoxicity [7] of 1. Moreover, the “HepSE_elevated liver function tests” value in the data set with Hepatotoxicity [8] was 0. The HepSE_liver fatty with Hepatotoxicity [9] is 0. Also, the HepSE_hepatic necrosis with Hepatotoxicity [10] is 0. In the data set on Hepatotoxicity [11], this molecule registered a HepSE_hepatitis of 0. Also, the “HepSE_liver function tests abnormal” value in the data set on Hepatotoxicity [12] is 1. In the data set on Hepatotoxicity [13], the HepSE_cirrhosis was found to be 0. The HepSE_liver disease in the data set with Hepatotoxicity [14] was 1.
`CCCCC[C@H](O)CC[C@@H]1[C@H]2Cc3cccc(OCC(=O)O)c3C[C@H]2C[C@H]1O` [TREPROSTINIL]: in the data set with Hepatotoxicity [1], the HepSE_cholecystitis was 0. This molecule also yielded a HepSE_jaundice in the data set with Hepatotoxicity [2] of 0. For the same molecule, the HepSE_cholelithiasis with Hepatotoxicity [3] came to 0. The “HepSE_Combined Scores” value with Hepatotoxicity [4] stood at 0. In the data set on Hepatotoxicity [5], this molecule had a HepSE_hepatic failure of 0. This molecule gave a HepSE_bilirubinemia in the data set on Hepatotoxicity [6] of 0. Further, the HepSE_hepatomegaly in the data set on Hepatotoxicity [7] is listed as 0. The “HepSE_elevated liver function tests” value in the data set with Hepatotoxicity [8] is recorded as 0. Besides, the HepSE_liver fatty in the data set with Hepatotoxicity [9] was found to be 0. Further, the HepSE_hepatic necrosis in the data set on Hepatotoxicity [10] turned out to be 0. This molecule also showed a HepSE_hepatitis in the data set with Hepatotoxicity [11] of 0. Also, the “HepSE_liver function tests abnormal” value with Hepatotoxicity [12] is 0. For the same molecule, in the data set on Hepatotoxicity [13], the HepSE_cirrhosis is 0. The HepSE_liver disease in the data set on Hepatotoxicity [14] is on record as 0.
The molecule `CC(C)(N)Cc1ccccc1` [PHENTERMINE] registered a HepSE_cholecystitis in the data set with Hepatotoxicity [1] of 0. Moreover, the HepSE_jaundice in the data set with Hepatotoxicity [2] turned out to be 0. The molecule also came in with a HepSE_cholelithiasis in the data set with Hepatotoxicity [3] of 0. Also, the “HepSE_Combined Scores” value with Hepatotoxicity [4] is recorded as 0. In addition, the HepSE_hepatic failure in the data set on Hepatotoxicity [5] is reported as 0. In the data set on Hepatotoxicity [6], this molecule yielded a HepSE_bilirubinemia of 0. This molecule yielded a HepSE_hepatomegaly in the data set with Hepatotoxicity [7] of 0. The “HepSE_elevated liver function tests” value in the data set on Hepatotoxicity [8] turned out to be 0. The HepSE_liver fatty in the data set with Hepatotoxicity [9] is given as 0. Besides, in the data set with Hepatotoxicity [10], the HepSE_hepatic necrosis is given as 0. The molecule further displayed a HepSE_hepatitis with Hepatotoxicity [11] of 0. In addition, the “HepSE_liver function tests abnormal” value in the data set with Hepatotoxicity [12] is 0. In addition, the HepSE_cirrhosis in the data set on Hepatotoxicity [13] is listed as 0. Moreover, the HepSE_liver disease in the data set with Hepatotoxicity [14] stood at 0.
As for VERTEPORFIN, in the data set on Hepatotoxicity [1], the HepSE_cholecystitis was found to be 0. Besides, the HepSE_jaundice with Hepatotoxicity [2] is on record as 0. The molecule also gave a HepSE_cholelithiasis in the data set with Hepatotoxicity [3] of 0. Further, in the data set on Hepatotoxicity [4], the “HepSE_Combined Scores” value turned out to be 1. The HepSE_hepatic failure with Hepatotoxicity [5] is given as 0. The same molecule gave a HepSE_bilirubinemia with Hepatotoxicity [6] of 0. Moreover, the HepSE_hepatomegaly in the data set with Hepatotoxicity [7] is listed as 0. In addition, the “HepSE_elevated liver function tests” value in the data set on Hepatotoxicity [8] was determined as 1. In addition, in the data set on Hepatotoxicity [9], the HepSE_liver fatty was 0. For the same molecule, the HepSE_hepatic necrosis in the data set on Hepatotoxicity [10] is given as 0. The molecule also returned a HepSE_hepatitis with Hepatotoxicity [11] of 0. Also, the “HepSE_liver function tests abnormal” value in the data set with Hepatotoxicity [12] is 0. This molecule also came in with a HepSE_cirrhosis in the data set on Hepatotoxicity [13] of 0. In the data set on Hepatotoxicity [14], this molecule gave a HepSE_liver disease of 0.
In the case of HEPARIN, in the data set with Hepatotoxicity [1], the HepSE_cholecystitis came out at 0. In the data set with Hepatotoxicity [2], this molecule displayed a HepSE_jaundice of 0. In the data set with Hepatotoxicity [3], this molecule came in with a HepSE_cholelithiasis of 0. In the data set on Hepatotoxicity [4], the “HepSE_Combined Scores” value came out at 1. Also, the HepSE_hepatic failure with Hepatotoxicity [5] was 0. The same molecule yielded a HepSE_bilirubinemia with Hepatotoxicity [6] of 0. Also, the HepSE_hepatomegaly in the data set with Hepatotoxicity [7] turned out to be 0. Further, the “HepSE_elevated liver function tests” value in the data set on Hepatotoxicity [8] came to 0. Besides, in the data set with Hepatotoxicity [9], the HepSE_liver fatty came out at 0. In the data set on Hepatotoxicity [10], this molecule gave a HepSE_hepatic necrosis of 0. The molecule further came in with a HepSE_hepatitis in the data set with Hepatotoxicity [11] of 0. Also, the “HepSE_liver function tests abnormal” value with Hepatotoxicity [12] is reported as 0. In addition, the HepSE_cirrhosis in the data set with Hepatotoxicity [13] is listed as 0. In the data set on Hepatotoxicity [14], this molecule displayed a HepSE_liver disease of 1.
The molecule `COc1cc([C@@H]2c3cc4c(cc3[C@H](O)[C@H]3COC(=O)[C@H]23)OCO4)cc(OC)c1OC` [PODOFILOX] had a HepSE_cholecystitis with Hepatotoxicity [1] of 0. Further, in the data set on Hepatotoxicity [2], the HepSE_jaundice came out at 0. This molecule displayed a HepSE_cholelithiasis in the data set on Hepatotoxicity [3] of 0. For the same molecule, the “HepSE_Combined Scores” value in the data set on Hepatotoxicity [4] was 0. Besides, in the data set with Hepatotoxicity [5], the HepSE_hepatic failure is given as 0. Also, the HepSE_bilirubinemia in the data set with Hepatotoxicity [6] was found to be 0. In the data set on Hepatotoxicity [7], this molecule came in with a HepSE_hepatomegaly of 0. In the data set on Hepatotoxicity [8], the “HepSE_elevated liver function tests” value is reported as 0. Besides, the HepSE_liver fatty in the data set with Hepatotoxicity [9] amounted to 0. Moreover, the HepSE_hepatic necrosis in the data set with Hepatotoxicity [10] was 0. In the data set on Hepatotoxicity [11], this molecule displayed a HepSE_hepatitis of 0. In addition, in the data set on Hepatotoxicity [12], the “HepSE_liver function tests abnormal” value was found to be 0. This molecule came in with a HepSE_cirrhosis with Hepatotoxicity [13] of 0. Moreover, the HepSE_liver disease in the data set with Hepatotoxicity [14] is on record as 0.
The molecule `CC(=O)[C@@]1(O)CC[C@H]2[C@@H]3C[C@H](C)C4=CC(=O)C=C[C@]4(C)[C@@]3(F)[C@@H](O)C[C@@]21C` [FLUOROMETHOLONE] showed a HepSE_cholecystitis with Hepatotoxicity [1] of 0. Besides, the HepSE_jaundice in the data set with Hepatotoxicity [2] came to 0. Also, the HepSE_cholelithiasis with Hepatotoxicity [3] is 0. Besides, the “HepSE_Combined Scores” value in the data set on Hepatotoxicity [4] was found to be 0. In the data set with Hepatotoxicity [5], this molecule yielded a HepSE_hepatic failure of 0. The HepSE_bilirubinemia in the data set with Hepatotoxicity [6] worked out at 0. Further, the HepSE_hepatomegaly with Hepatotoxicity [7] is given as 0. Further, the “HepSE_elevated liver function tests” value in the data set on Hepatotoxicity [8] is given as 0. The molecule further showed a HepSE_liver fatty in the data set on Hepatotoxicity [9] of 0. The same molecule had a HepSE_hepatic necrosis in the data set on Hepatotoxicity [10] of 0. The molecule also showed a HepSE_hepatitis in the data set on Hepatotoxicity [11] of 0. The “HepSE_liver function tests abnormal” value in the data set with Hepatotoxicity [12] was found to be 0. The same molecule had a HepSE_cirrhosis with Hepatotoxicity [13] of 0. In addition, the HepSE_liver disease in the data set with Hepatotoxicity [14] is 0.
`C[C@@H]1C[C@H]2[C@@H]3C[C@H](F)C4=CC(=O)C=C[C@]4(C)[C@@]3(F)[C@@H](O)C[C@]2(C)[C@@]1(O)C(=O)SCF` [FLUTICASONE] gave a HepSE_cholecystitis in the data set with Hepatotoxicity [1] of 1. The HepSE_jaundice in the data set with Hepatotoxicity [2] stood at 0. Moreover, the HepSE_cholelithiasis with Hepatotoxicity [3] is 0. For the same molecule, the “HepSE_Combined Scores” value with Hepatotoxicity [4] is 1. Moreover, in the data set on Hepatotoxicity [5], the HepSE_hepatic failure came out at 0. In the data set on Hepatotoxicity [6], this molecule showed a HepSE_bilirubinemia of 0. In the data set with Hepatotoxicity [7], this molecule gave a HepSE_hepatomegaly of 0. In addition, the “HepSE_elevated liver function tests” value with Hepatotoxicity [8] is given as 0. In the data set on Hepatotoxicity [9], the HepSE_liver fatty is recorded as 0. The molecule further came in with a HepSE_hepatic necrosis in the data set on Hepatotoxicity [10] of 0. Besides, the HepSE_hepatitis in the data set with Hepatotoxicity [11] is reported as 0. For the same molecule, the “HepSE_liver function tests abnormal” value in the data set with Hepatotoxicity [12] is 0. Further, the HepSE_cirrhosis in the data set on Hepatotoxicity [13] came to 0. This molecule showed a HepSE_liver disease in the data set with Hepatotoxicity [14] of 0.
The molecule `N[C@@H](Cc1cc(I)c(Oc2ccc(O)c(I)c2)c(I)c1)C(=O)O` [LIOTHYRONINE] showed a HepSE_cholecystitis in the data set on Hepatotoxicity [1] of 0. In the data set on Hepatotoxicity [2], this molecule yielded a HepSE_jaundice of 0. This molecule also registered a HepSE_cholelithiasis in the data set with Hepatotoxicity [3] of 0. Also, the “HepSE_Combined Scores” value in the data set on Hepatotoxicity [4] was 0. Moreover, the HepSE_hepatic failure in the data set on Hepatotoxicity [5] is recorded as 0. The molecule also had a HepSE_bilirubinemia with Hepatotoxicity [6] of 0. This molecule also registered a HepSE_hepatomegaly in the data set on Hepatotoxicity [7] of 0. The “HepSE_elevated liver function tests” value in the data set on Hepatotoxicity [8] was determined as 0. In the data set with Hepatotoxicity [9], this molecule returned a HepSE_liver fatty of 0. Moreover, the HepSE_hepatic necrosis with Hepatotoxicity [10] was determined as 0. Also, the HepSE_hepatitis with Hepatotoxicity [11] came out at 0. In the data set on Hepatotoxicity [12], the “HepSE_liver function tests abnormal” value is 0. For the same molecule, in the data set on Hepatotoxicity [13], the HepSE_cirrhosis came to 0. The molecule further yielded a HepSE_liver disease in the data set on Hepatotoxicity [14] of 0.
